The values that follow come from patent US10106519B2, “3-phenyl-7-hydroxy-isocoumarins as macrophage migration inhibitory factor (MIF) inhibitors” (The Provost, Fellows, Foundation Scholars, & the Other …, priority 2014, dated 2018).

Entries after “also recorded” stand apart in the source; their conditions may differ.

Assay [1] relates to prostate cancer cells. To be noted: cited from earlier work.
The subject of assay [2] is circulating levels of TNF-α. As to conditions: LPS induced model of murine sepsis; cited from earlier work.
Assay [3] concerns LPS mediated PGE-2 production. As to the kind of experiment: PGE-2 production in LPS treated RAW macrophage cells (ELISA). The format is cell-based, murine. To be noted: 100 μM inhibitor, 100 ng/ml LPS (FIG. 4). Here is the method:
Raw macrophage murine cells were plated at a cell density of 1×10^5 and pre-treated with 100 μM of each of the inhibitors […] for 30 minutes at 37° C. in a humidified 5% CO2 incubator. Raw macrophage cells were then treated with 100 ng/ml of LPS and supernatants were collected after 16 hours at 37° C. in a humidified 5% CO2 incubator and analysed for PGE-2 production. Levels of PGE-2 were measured by ELISA. (CAT # KGE004 R&D Syst).
In general terms: An ELISA detects its analyte on a solid surface through an enzyme-linked reagent.

Assay [4] has as its system LPS induced TNF-α production. Description: Inhibition of LPS induced TNF-α production in RAW 264.7 macrophage cells (ELISA). The format is cell-based, mouse. Here is the method: RAW 264.7 macrophage cells were plated at 1×10^5/ml in 450 μl of medium in a 48 well plate. 16 hours later cells were treated with ISO-1 or Tautomerase Inhibitors at a final concentration of 10, 50 or 100 μM for 30 minutes before stimulation with 100 ng/ml LPS. Supernatants were collected after 20 hours for determination of TNF-α levels. TNF-α levels were determined using a TNF-α specific ELISA (CAT # DY410 R&D Syst).
96 well plates were coated with 50 μl of Capture Antibody ([…]) in PBS and sealed and incubated overnight at 4° C. Plates were then washed three times in 0.05% PBS Tween and plates blotted. Plates were blocked by adding 150 μl of 1% BSA in PBS (Gibco—cat no. 14190-094) to each well and incubated at room temperature for 2 hours. Plates were washed again as previously described. 50 μl of sample or standard was added to each well and incubated for overnight at 4° C. Plates were then washed again as described. 50 μl of the detection Antibody (200 ng/ml) in 1% BSA in PBS was added to each well and incubated for 2 hours at room temperature. Plates were then washed again as described. 50 μl of working concentration of Streptavidin—HRP was added to each well and plates were covered and incubated for 20 minutes at room temperature. 50 μl of substrate solution (One OPD tablet and one urea hydrogen peroxide/buffer tablet were dissolved in 20 ml of water to yield a ready to use buffered solution, Sigma—cat no. 9187-50) was added to each well and incubated for 20 minutes at room temperature. 25 μl of 2N H2SO4 was added to each well to stop the reaction. The optical density of each well was then measured with a spectrophotometer at 450 nm.
Initially the panel of 25 novel potential tautomerase inhibitors was screened in an in-vitro system. In order to do this we exploited the fact that MIF is needed for optimal LPS induced TNF-α production. We therefore reasoned that our potential TIs should be able to inhibit LPS induced TNF-α in RAW macrophage murine cells. RAW macrophage murine cells were plated at 37° C. in a humidified 5% CO2 incubator. 16 hours later the cells were pre-treated with each of the inhibitors at concentration of 100, 50 or 10 μM for 30 minutes 100 ng/ml of LPS was then added to the cells and supernatants were collected after 16 hours and analysed for TNF-α production by ELISA.

The test system of assay [5] is PGE-2. As to conditions: increasing concentrations; cited from earlier work.
Assay [6] concerns Lewis Lung carcinoma cells (LLC). As to the kind of experiment: LLC-GLuc proliferation assay with rMIF. The format is cell-based, mouse. To be noted: 100 μM inhibitor, 100 ng/ml rMIF, 48 hours (FIG. 5). Here is the method:
LLC-GLuc cells were plated in a 6 well plate at a density of 5×10^4 cells/ml in DMEM supplemented with P/S, 10% FCS and L-Glu. After overnight adherence, 100 ng/ml MIF was added along with the inhibitors or DMSO to a total of 1 ml serum free medium. Cells were harvested after 48 hours by trypsinisation and counted in a haemocytometer.
The ability of candidate compounds to reduce cellular proliferation was also examined. For this assay, LLC cells were plated at a cell density of 5×10^4 cells/ml. The cells were then pre-treated with TI 19 or ISO-1 at a concentration of 100 μM. The cells were then treated with 100 ng/ml of recombinant MIF. The cells were incubated at 37° C. in a humidified 5% CO2 incubator and after 48 hours the cells were harvested and counted.

The subject of assay [7] is LPS induced TNF-α production. To be noted: RAW 264.7 cell line, previously shown; cited from earlier work.
The subject of assay [8] is Lewis Lung carcinoma cells. As to the kind of experiment: Subcutaneous LLC1 tumour model with in vivo tautomerase inhibitor treatment. Set-up: species or system C57BL/6 mice. To be noted: 35 mg/kg intraperitoneally 30 min prior to inoculation and twice weekly, day 28 (FIG. 8). The method, then: Log phase cultures of LLC-1 cells were harvested by trypsinisation and washed three times with sterile phosphate buffered saline (PBS) and resuspended at a cell density of 5×10^5/ml in PBS. Animals were shaved with an electric shaver 24 hours before subcutaneous injection. 5×10^5 Lewis Lung cells were injected subcutaneously into the left flank of C57BL/6 mice of 6-8 weeks. Animals were monitored for the duration of the experiment and tumour measurements were recorded twice weekly with a digital callipers. Tumour volume (mm^3) was calculated as 0.5×L×W^2, where length is representative of the larger tumour diameter and the width represents the smaller tumour diameter. Animals are sacrificed when tumours reach a diameter of 15 mm or if tumours become ulcerated. Tumours are then removed along with the lungs, spleen and liver.
30 minutes prior to LLC-1 inoculation, inhibitors (TI 19/ISO-1) were administered at a concentration of 35 mg/kg in a volume of 100 μl 5% DMSO in sterile PBS. Control groups were given injections of vehicle 5% DMSO in sterile PBS or sterile PBS alone. Animals were treated twice weekly for four weeks.
In order to assess the antitumour activity of the novel tautomerase inhibitors in vivo, a subcutaneous LLC-1 cell model was set up. The subcutaneous model was chosen so that tumours could be easily visualised and measured during the course of the experiment and to allow assessment of the growth of the tumour in real time. Lewis Lung carcinoma cells (5×10^5) were injected sub-cutaneously into the left flank of C57BL/6 mice. Caliper measurements were taken twice weekly and tumour volume (mm^3) was calculated as 0.5×L×W^2. […] The cut off point for this model was when the tumour measured 15 mm in diameter. This model gave us an indication of normal tumour growth in this subcutaneous model. It can be seen from this model that from day 22 to day 28 the size of the tumour grows considerably.
Once it was determined that the enzymatic activity played a role in the growth of tumours, the subcutaneous LLC model was then used to assess the efficiency of the small weight molecular inhibitors. C57/B16 mice were injected intraperitoneally with 35 mg/kg of each of the inhibitors 30 minutes prior to subcutaneous tumour inoculation and again twice weekly for 4 weeks. Animals were monitored daily and tumour measurements taken until the tumour measured 15 mm in diameter.

Assay [9] deals with T1, MIF tautomerase (Homo sapiens, UniProt P14174).
T1 construct: host or cells: E. coli BL21
T1 sequence (P14174 2-115 limits assumed): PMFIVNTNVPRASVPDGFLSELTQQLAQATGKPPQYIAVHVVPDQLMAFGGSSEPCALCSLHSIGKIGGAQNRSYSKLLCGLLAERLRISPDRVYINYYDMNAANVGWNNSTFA
Description: MIF tautomerase inhibition assay. The format is biochemical. To be noted: structure activity relationship studies (FIG. 10). Here is the method:
Human recombinant MIF was purified as per Bernhagen et al. (Biochemistry, 1994. 33(47): p. 14144-55). Briefly, BL21 E. coli cells expressing the pET11b-MIF construct were grown to an absorbance at 600 nm (OD) of […]. Isopropyl 1-thio-P-D-galactopyranoside (IPTG) (Sigma—cat no. 16758) was added to a final concentration of 1 mM to induce expression of the MIF gene and incubated for another 3 hours. Bacteria were then harvested by centrifugation and the cell pellets were then frozen. Protein purification was then out sourced to Scottish Biomedical, where the bacterial pellets were thawed and resuspended in 3 ml of Tris-buffered saline. The bacteria were then lysed by adding an equivalent number of glass beads and vortexing strongly for 10 minutes. Glass beads were removed by centrifugation at 1000 g for 10 minutes and the bacterial extract was centrifuged at 1000 g for a further 30 minutes. The supernatant was then sterile-filtered through a […] membrane filter and put through a MONO Q anion exchange chromatography column. MIF was eluted using Tris-buffered saline in the first flow-through fractions and pooled and placed on ice. These pooled fractions were then applied to a C8-SepPak reverse phase column. Unbound material was eluted by washing with water and 20% acetonitrile/water. MIF was then eluted using 6 column volumes of 60% acetonitrile/water. This sample was then renatured by dissolving MIF at a concentration of […] in 20 mM sodium phosphate buffer containing 8M urea and 5 mM DTT and dialysed against 20 mM sodium phosphate buffer. […]
L-dopachrome methyl ester was prepared at 2.4 mM through oxidation of L-3,4-dihydroxyphenylalanine methyl ester with sodium periodate. The solution was mixed well and placed at room temperature for 5 minutes before being placed on ice in the dark. 100 ng of rMIF was added to each of the Tautomerase Inhibitors or ISO-1 at a number of concentrations (1, 50 and 100 μM) with substrate. The decrease in absorbance was measured with a spectrophotometer at 475 nm every 10 seconds for 10 minutes.
The rate of the reaction of rMIF and substrate alone was measured over time at 475 nm. This was compared to the rate of this reaction with the addition of 100 μM of each of the inhibitors. Inhibition was calculated as the percentage in the reduction of the rate of change with the addition of the inhibitor averaged over five minutes.

The mark [10] stands for this setting: comparative analysis, same assay.

With `COC(=O)CC1CC(c2ccc(O)cc2)=NO1` (stereo not shown) [ISO-1, reference compound], the “cell proliferation, in words” value in assay [1] is “decreased cell proliferation in prostate cancer cells”. Also, the “circulating levels of TNF-α, in words” value in [2] is recorded as “reduce circulating levels of TNF-α”. Besides, the “reduction of LPS mediated PGE-2 production, in words” value in assay [3] is listed as “significantly reduces”. Moreover, in assay [4] (100 μM inhibitor 30 minutes before 100 ng/ml LPS (FIG. 2A)), the “reduction of TNF-α production” value is recorded as 20%. For the same molecule, the “production of PGE-2, in words” value in assay [5] was “reduce the production of PGE-2 in a dose dependant manner”. In assay [6], the “reduction of MIF induced proliferation, in words” value is listed as “less so; also recorded: reduced the MIF induced proliferation”. For the same molecule, in [7], the “TNF-α production induced by LPS, in words” value is listed as “inhibit TNF-α production induced by addition of LPS”. Besides, in assay [8], the “reduction in tumour growth / tumour size” value is “over 50%”.
With `Cc1ccccc1-c1cc2ccc(O)cc2c(=O)o1` [SDG-22, 3-(2′-methylphenyl)-7-hydroxyisocoumarin], the “reduction of TNF-α production, comparative analysis” value in assay [4] (LPS stimulated RAW macrophage murine cells, 100 μM (FIG. 11)) worked out at 97%. In assay [4] (setting [10]), the “more effective than ISO-1 in reducing TNF-α production” value stood at 80% and the “more effective than TI 19 in reducing TNF-α production” value turned out to be 10%. For the same molecule, in assay [4] (concentration not given), the “reduction of TNF-α production, in words” value is reported as “significant reduction in TNF-α production”. Further, in assay [9], the “inhibition of MIF tautomerase activity, analogues of TI 19” value is listed as > 90% and the “tautomerase inhibitory activity of analogues, in words” value is on record as “very effective inhibitor of MIF tautomerase; also recorded: most effective tautomerase inhibitor identified to date; also recorded: significantly more potent than TI 19”.
For `COc1ccc2cc(-c3ccccc3C)oc(=O)c2c1` [SDG-23], the “tautomerase inhibitory activity of analogues, in words” value in assay [9] was “did not significantly inhibit MIF tautomerase”.
On the same count and under the same terms, the result for `Cc1cc2ccccc2c(=O)o1` [SDG-40] reads “dramatic loss of inhibitory activity”; that for `Cc1ccccc1-c1cc2ccccc2c(=O)[nH]1` [SDG-42], “ineffective as a tautomerase inhibitor”.
The same measure, in the same setting: the result for `O=c1oc(-c2ccccc2)cc2ccccc12` [SDG-46] reads “inactivity”; that for `Cc1cccc(-c2cc3ccc(O)cc3c(=O)o2)c1` [SDG-47, 3-(3′-methylphenyl)-7-hydroxyisocoumarin], “almost complete inhibition of MIF tautomerase activity”.
In the case of `O=c1oc(-c2ccccc2O)cc2ccccc12` [SDG-50], the “tautomerase inhibitory activity of analogues, in words” value in assay [9] is “dramatic loss in tautomerase inhibition activity”.
In the case of `COc1cc2c(=O)oc(-c3ccccc3C)cc2cc1C` [SDG-51, 3-(2′-methylphenyl)-6-methyl-7-methoxyisocoumarin], in assay [9], the “tautomerase inhibitory activity of analogues, in words” value is recorded as “did not significantly inhibit MIF tautomerase”.
In the case of `Cc1cc2cc(-c3ccccc3C)oc(=O)c2cc1O` [SDG-52, 3-(2′-methylphenyl)-6-methyl-7-hydroxyisocoumarin], the “tautomerase inhibitory activity of analogues, in words” value in assay [9] was “some inhibitory activity”.
As to `COc1cc2cc(-c3ccccc3C)oc(=O)c2cc1OC` [SDG-53, 3-(2′-methylphenyl)-6,7-dimethoxyisocoumarin], the “tautomerase inhibitory activity of analogues, in words” value in [9] was “did not significantly inhibit MIF tautomerase”.
With `Cc1ccccc1-c1cc2cc(O)c(O)cc2c(=O)o1` [SDG-54, 3-(2′-methylphenyl)-6,7-hydroxyisocoumarin], in [9], the “inhibition of MIF tautomerase activity, analogues of TI 19” value was found to be 86% and the “tautomerase inhibitory activity of analogues, in words” value is “almost complete inhibition of MIF tautomerase activity”.
